Test results: patent US20240033244A1, “COMPOSITIONS AND METHODS FOR INHIBITING YTHDF1” (SHANGHAI INSTITUTE OF MATERIA MEDICA, CHINESE ACADEMY OF …, priority 2020, published 2024)

Experiments:
YTHDF1 mutant W384A = molecular target: T1, YTHDF1 mutant W384A (Homo sapiens, UniProt Q9BYJ9, W384A); test: FP assay with YTHDF1 mutant W384A; assay type: binding
T1 construct: GST (N, cleaved yes); made in house; host or cells: E. coli BL21 (DE3)
Protocol: The protein YTHDF1 (361-559) (SEQ ID NO: 2) and its mutants (SEQ ID NOs: 4-13) were cloned into pGEx-6P-1 vector (obtained from YouBio Co, Ltd, Catalog NO: VT1258), and the His-YTHDF1 (361-559) (SEQ ID NO: 3) used in AlphaScreen Assay was cloned into modified pET28a vector (obtained from YouBio Co, Ltd, Catalog NO: VT1207). The vectors were transformed into E. coli BL21 (DE3) cells and cultured at 37° C. When OD value reached 0.6˜0.8, 1 mM Isopropyl-β-D-thiogalactopyranoside was added to overexpress the protein at 16° C. overnight. […] Then, the proteins were further purified via cation exchange (HiTrap SP, GE Healthcare) and finally through a Superdex 75 10/300 column (GE Healthcare). At last, the purified YTHDF1(361-559) and the mutants were kept in buffer which contains 20 mM Hepes (pH 7.4) and 200 mM NaCl. For His-YTHDF1 (361-559), the protein was purified via Ni-NTA chromatography (HisTrap FF, GE Healthcare), followed by cation exchange and Superdex 75 10/300 column in sequence. And the obtained protein was kept in the buffer with the same ingredients.
All of the YTHDF1 (361-559), the 5′-FAM labeled m^6A-containing mRNA (5′-FAM-[…] (m^6A) CUGUG-3′, SEQ ID NO: 14) and the candidate compounds were diluted with assay buffer (20 mM Hepes (pH 7.4), 50 mM NaCl, 0.01% (v/v) tween 20, 5% (v/v) glycerol). […] At last, the mixtures were measured by Envision Readers (PerkinElmer). […]

[1] = test system: classical DCs in draining lymph node; test: Ex vivo cross-priming by DCs sorted from draining lymph node of treated mice; assay type: in vivo, mouse; settings: four DC subtypes from SAA treated B16-OVA bearing mice, day 12
Protocol: For in vitro cross-presentation study, mature FLT3L-DCs were harvested on day 9 and purified by EasySep Mouse CD11 c Positive Selection Kit II, then treated with 10 μM SAA or DMSO in IMDM medium (contain 10% bovine and 100 ng/mL FLT3L) for 10 h. […] Then antigen-obtained DCs were purified and co-cultured with naïve T cells from OT-1 mice at a ratio of 1:10 for 96 h. The co-culture medium was 1640 RPMI contains 10% fetal bovine with or without 1 μg/mL OT-1 (OVA 257-264) peptide. For ex vivo DCs cross-presentation assay, four types of DCs (migration CD11b DC, migration CD103′ DC, resident CD11b DC and resident CD8^+ DC) were sorted in draining lymph node from SAA treated B16-OVA bearing mice at day 12. These DCs were co-cultured with OT-1 naïve T cells in the ratio of 1:10 for 96 hours with or without OT-1 peptide. Supernatant IFN-γ production was detected via CBA assay.
Further, four types of classical DCs (resident CD11b^+, resident CD8α^+, migratory CD11b^+ and migratory CD103^+) in draining lymph node were sorted from SAA treated B16-OVA bearing wild-type mice on day 12. These DCs were co-cultured with OT-I T cells for 72 hours. Then, IFN-γ production was assessed by IFN-γ cytometric bead array.

His-YTHDF1 (361-559) = molecular target: T2, His-YTHDF1 (361-559) (Homo sapiens, UniProt Q9BYJ9); test: AlphaScreen-based assay, m6A-containing mRNA binding to YTHDF1; settings: read-out: IC50, blocking binding between m6A and YTHDF1
T2 construct: made in house; host or cells: E. coli BL21 (DE3)
T2 sequence (Q9BYJ9 with tags, fused parts or gaps): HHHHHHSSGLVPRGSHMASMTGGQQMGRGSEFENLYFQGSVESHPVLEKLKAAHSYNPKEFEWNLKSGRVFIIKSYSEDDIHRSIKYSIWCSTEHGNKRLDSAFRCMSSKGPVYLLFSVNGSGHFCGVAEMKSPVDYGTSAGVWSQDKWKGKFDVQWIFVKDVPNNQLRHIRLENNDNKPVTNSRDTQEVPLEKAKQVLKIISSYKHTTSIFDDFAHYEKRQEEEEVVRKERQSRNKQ
Protocol: Then 10 nM biotinylated m^6A-containing mRNA (5′-biotin-[…] (m^6A) CUGUG-3′) (SEQ ID NO: 15) was added to bind with YTHDF1 (361-559), and unbiotinylated m^6A-containing mRNA was used as the positive control. Before Alpha signal detection, streptavidin donor beads and anti-His acceptor beads were added into the white assay plate in subdued light (OptiPlate™-384, PerkinElmer) and incubated at 4° C. for 1 hour to ensure sufficient binding between biotin tag and streptavidin donor beads, as well as that between His tag and anti-His acceptor beads. Then the Alpha signal was detected on Envision Readers (PerkinElmer).

[2] = test system: draining lymph node T cells; test: Draining lymph node T cell IFN-γ after OT1 peptide stimulation; assay type: in vivo, mouse; settings: 1 μg/mL OT1 peptide
Protocol: Tumor infiltrating leukocytes were resuspended by RPMI 1640 medium at 5×10^6 per mL in 96-well plates. Phorbol-12-myristate-13-acetate (PMA) (2.5 μg/mL) and ionomycin (0.5 μg/mL) were used to stimulate T cells together with brefeldin A were added to the culture medium for 2 hours at 37° C. Cell concentration of total lymphocytes from draining lymph node was adjusted to 5×10^6 per mL in 96-well plate. 1 μg/mL OT-1 (OVA 257-264) peptide was added to the wells and stimulated for 96 hours. Samples were stained with CD45 and CD8 on ice for 30 min. Intracellular staining was performed to quantify IFN-γ and granzyme B production.
Then, lymphocytes from draining lymph node were isolated and stimulated with 1 μg/mL OT1 peptide, and IFN-γ producing cell were analyzed by FACS.

T1 sequence (Q9BYJ9 with tags, fused parts or gaps W384A): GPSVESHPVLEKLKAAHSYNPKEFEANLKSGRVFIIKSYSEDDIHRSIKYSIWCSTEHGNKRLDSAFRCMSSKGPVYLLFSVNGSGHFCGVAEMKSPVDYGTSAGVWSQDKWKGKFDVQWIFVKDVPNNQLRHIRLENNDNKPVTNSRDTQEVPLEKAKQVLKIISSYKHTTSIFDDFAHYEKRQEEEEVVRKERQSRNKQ

O=C(/C=C/c1ccc(O)c(O)c1/C=C/c1ccc(O)c(O)c1)O[C@H](Cc1ccc(O)c(O)c1)C(=O)O [SAA, Salvianolic Acid A]
inhibitory activity against mutant binding to m6A versus wildtype (YTHDF1 mutant W384A): significantly weaker than that against wildtype YTHDF1 | cross-priming of T cells (IFN-γ production) [1]: better cross-priming of T cells than DMSO treated group | IC50 (His-YTHDF1 (361-559)): 0.86 ± 0.06 µM | IFN-γ production by DLN T cells [2]: much more IFN-γ than DMSO group
